Seven molecules from patent US9340590B2 (priority 2011, dated 2016) can be followed below.

Common to all, as to assay: cell-based
The target in one assay is hNav1.3 (Homo sapiens, UniProt Q9NY46). The note with it: IonWorks Quattro, read-out: IWQ Use Nav1.3. On the technique in general: In patch-clamp work, channel activity is measured electrically.
The target in the next assay is hNav1.7 (Homo sapiens, UniProt Q15858). The format is cell-based.
The target in another assay is hNav1.5 (Homo sapiens, UniProt Q14524).
hNav1.5, sequence (Q14524 whole entry, looked up): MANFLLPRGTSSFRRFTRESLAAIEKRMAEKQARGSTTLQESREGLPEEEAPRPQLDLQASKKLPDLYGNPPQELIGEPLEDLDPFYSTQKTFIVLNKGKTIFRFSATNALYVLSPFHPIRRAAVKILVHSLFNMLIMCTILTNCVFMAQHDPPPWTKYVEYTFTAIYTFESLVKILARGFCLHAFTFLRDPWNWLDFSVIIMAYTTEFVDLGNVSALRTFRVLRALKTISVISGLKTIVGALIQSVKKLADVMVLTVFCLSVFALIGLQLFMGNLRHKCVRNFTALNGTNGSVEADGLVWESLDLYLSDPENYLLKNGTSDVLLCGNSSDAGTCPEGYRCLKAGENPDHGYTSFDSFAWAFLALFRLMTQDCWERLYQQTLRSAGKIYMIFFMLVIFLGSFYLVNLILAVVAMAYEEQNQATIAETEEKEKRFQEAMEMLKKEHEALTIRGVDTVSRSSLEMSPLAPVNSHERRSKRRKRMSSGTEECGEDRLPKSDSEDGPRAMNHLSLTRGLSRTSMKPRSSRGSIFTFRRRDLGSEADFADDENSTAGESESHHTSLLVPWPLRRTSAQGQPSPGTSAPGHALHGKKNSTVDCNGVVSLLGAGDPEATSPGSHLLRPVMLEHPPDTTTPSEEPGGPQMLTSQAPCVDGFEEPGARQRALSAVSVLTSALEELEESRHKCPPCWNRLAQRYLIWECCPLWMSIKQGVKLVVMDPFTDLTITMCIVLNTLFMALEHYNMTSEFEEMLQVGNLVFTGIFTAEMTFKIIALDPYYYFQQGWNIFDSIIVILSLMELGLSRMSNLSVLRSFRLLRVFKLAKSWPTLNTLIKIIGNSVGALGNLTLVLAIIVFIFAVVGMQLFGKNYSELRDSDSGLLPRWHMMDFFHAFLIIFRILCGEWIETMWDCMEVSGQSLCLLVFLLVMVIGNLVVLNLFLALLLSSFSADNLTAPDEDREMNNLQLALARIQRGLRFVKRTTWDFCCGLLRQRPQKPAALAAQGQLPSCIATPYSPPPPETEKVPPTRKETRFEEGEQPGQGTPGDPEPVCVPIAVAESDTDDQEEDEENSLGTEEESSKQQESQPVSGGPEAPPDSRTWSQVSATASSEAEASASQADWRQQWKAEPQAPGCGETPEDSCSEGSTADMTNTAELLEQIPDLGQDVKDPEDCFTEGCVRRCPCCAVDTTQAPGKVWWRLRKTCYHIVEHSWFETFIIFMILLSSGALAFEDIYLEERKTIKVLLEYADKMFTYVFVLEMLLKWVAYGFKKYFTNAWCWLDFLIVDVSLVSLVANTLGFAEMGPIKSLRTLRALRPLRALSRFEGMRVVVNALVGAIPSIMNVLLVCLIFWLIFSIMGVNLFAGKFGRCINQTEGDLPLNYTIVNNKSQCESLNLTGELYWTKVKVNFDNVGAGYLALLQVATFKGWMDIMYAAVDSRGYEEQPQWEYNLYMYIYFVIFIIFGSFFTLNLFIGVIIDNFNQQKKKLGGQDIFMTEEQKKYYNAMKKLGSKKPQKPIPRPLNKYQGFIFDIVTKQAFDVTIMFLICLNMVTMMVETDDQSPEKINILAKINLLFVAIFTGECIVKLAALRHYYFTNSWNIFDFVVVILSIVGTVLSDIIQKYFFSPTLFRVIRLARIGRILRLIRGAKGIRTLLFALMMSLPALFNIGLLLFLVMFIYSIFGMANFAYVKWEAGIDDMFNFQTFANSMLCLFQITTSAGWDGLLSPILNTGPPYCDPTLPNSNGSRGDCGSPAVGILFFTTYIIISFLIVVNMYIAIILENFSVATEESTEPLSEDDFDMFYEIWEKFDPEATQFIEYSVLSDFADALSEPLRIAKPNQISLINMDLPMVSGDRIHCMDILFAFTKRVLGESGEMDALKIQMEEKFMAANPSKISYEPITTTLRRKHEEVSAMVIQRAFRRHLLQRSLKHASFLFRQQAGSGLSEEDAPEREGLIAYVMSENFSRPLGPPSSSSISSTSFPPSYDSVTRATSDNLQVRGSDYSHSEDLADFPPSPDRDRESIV
[1] abbreviates: IonWorks Quattro, use-dependent, […], read-out: IWQ Use Nav1.5.

The structures appear in SMILES notation. Read-outs that look alike come from different tables or passages of the source. Positions of bridges follow the written chain, without caps; N, C: chain ends. Residues, ends and D or L forms follow the SMILES beside them.

hNav1.7, sequence (Q15858 whole entry, looked up): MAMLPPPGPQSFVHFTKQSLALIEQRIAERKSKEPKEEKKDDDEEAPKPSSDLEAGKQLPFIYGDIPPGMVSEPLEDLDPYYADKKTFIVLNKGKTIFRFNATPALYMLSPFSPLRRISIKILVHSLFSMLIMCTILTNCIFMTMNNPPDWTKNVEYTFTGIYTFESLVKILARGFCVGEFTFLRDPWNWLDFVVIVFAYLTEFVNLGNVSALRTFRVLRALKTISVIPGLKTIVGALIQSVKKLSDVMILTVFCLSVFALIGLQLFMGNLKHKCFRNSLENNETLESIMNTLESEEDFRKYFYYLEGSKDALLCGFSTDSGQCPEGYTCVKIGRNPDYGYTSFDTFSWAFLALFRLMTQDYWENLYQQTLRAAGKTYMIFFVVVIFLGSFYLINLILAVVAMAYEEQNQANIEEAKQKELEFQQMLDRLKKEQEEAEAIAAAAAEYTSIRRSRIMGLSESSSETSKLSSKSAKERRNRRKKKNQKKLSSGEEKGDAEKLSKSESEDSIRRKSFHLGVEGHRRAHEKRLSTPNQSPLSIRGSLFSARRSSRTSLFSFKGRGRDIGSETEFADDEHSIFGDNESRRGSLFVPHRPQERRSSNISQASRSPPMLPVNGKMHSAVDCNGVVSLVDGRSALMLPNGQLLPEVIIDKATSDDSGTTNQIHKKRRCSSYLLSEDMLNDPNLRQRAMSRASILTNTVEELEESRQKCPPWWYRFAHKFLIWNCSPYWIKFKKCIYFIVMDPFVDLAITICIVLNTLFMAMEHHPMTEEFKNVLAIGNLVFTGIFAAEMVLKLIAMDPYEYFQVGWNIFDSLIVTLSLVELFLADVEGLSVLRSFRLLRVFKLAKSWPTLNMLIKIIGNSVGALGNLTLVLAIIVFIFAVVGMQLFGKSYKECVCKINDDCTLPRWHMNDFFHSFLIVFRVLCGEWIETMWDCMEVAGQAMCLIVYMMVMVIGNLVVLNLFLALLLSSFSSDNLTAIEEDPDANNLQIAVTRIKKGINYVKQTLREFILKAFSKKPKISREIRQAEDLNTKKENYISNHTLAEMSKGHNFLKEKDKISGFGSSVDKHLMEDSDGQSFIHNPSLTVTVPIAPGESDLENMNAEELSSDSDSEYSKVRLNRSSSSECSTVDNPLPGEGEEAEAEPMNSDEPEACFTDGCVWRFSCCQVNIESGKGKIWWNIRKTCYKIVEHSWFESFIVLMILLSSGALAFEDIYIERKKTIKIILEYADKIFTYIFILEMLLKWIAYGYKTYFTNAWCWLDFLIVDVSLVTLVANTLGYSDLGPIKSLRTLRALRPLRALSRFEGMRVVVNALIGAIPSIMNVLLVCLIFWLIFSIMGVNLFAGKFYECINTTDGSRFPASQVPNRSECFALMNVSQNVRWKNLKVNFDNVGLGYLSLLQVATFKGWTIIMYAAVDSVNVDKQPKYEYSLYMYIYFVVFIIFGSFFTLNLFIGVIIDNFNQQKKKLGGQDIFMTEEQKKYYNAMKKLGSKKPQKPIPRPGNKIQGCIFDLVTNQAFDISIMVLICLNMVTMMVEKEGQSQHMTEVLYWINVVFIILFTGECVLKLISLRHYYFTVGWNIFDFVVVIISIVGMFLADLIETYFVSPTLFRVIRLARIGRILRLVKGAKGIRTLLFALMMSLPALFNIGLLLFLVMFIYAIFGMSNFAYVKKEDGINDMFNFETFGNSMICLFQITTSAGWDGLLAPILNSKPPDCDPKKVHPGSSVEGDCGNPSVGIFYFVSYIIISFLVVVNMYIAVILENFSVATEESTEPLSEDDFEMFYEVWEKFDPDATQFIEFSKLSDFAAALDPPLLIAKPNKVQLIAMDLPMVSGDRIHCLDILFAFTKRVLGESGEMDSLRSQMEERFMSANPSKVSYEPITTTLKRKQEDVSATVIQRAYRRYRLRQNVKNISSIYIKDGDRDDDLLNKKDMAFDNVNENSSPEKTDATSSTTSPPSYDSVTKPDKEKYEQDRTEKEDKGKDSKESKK

Regarding `CSCC[C@@H]1NC(=O)[C@H](Cc2ccccc2)NC(=O)CNC(=O)[C@H](CC(C)C)NC(=O)[C@@H](NC(=O)[C@@H](N)CC(=O)O)CSSC[C@@H]2NC(=O)[C@@H]3CSSC[C@@H](C(=O)N[C@@H](CCCCN)C(=O)N[C@@H](Cc4ccc(O)cc4)C(=O)N[C@H](C(=O)N[C@@H](Cc4ccccc4)C(N)=O)C(C)C)NC(=O)[C@H](Cc4c[nH]c5ccccc45)NC(=O)[C@H](CCCCN)NC(=O)[C@H](Cc4cnc[nH]4)NC(=O)[C@H]([C@@H](C)O)NC(=O)[C@H](CCCNC(=N)N)NC(=O)[C@H](CO)NC(=O)[C@H](CSSC[C@H](NC(=O)[C@H](CCCCN)NC(=O)[C@H](CCCNC(=N)N)NC1=O)C(=O)N[C@@H](CCCNC(=N)N)C(=O)N1CCC[C@H]1C(=O)N[C@@H](CC(=O)O)C(=O)N[C@@H](CC(N)=O)C(=O)N[C@@H](CC(=O)O)C(=O)N[C@@H](CCCCN)C(=O)N3)NC(=O)[C@H](C(C)C)NC(=O)[C@H](CC(C)C)NC(=O)[C@H](CC(N)=O)NC(=O)[C@@H]1CCCN1C(=O)[C@H](CCCNC(=N)N)NC2=O` [compound 66] (H-DCLGFMRKCRPDNDKCCRPNLVCSRTHKWCKYVF-NH2; disulfide 2-17, 9-23, 16-30), the IC50 came out at 110 nM on hNav1.3 (Use); 160 nM on hNav1.7; 15.2 µM on hNav1.5 (IonWorks Quattro, Use, read-out: IWQ Use Nav1.5).

For the molecule `CC[C@H](C)[C@@H]1NC(=O)[C@@H]2CSSC[C@@H]3NC(=O)[C@H](C(C)C)NC(=O)[C@H](CC(C)C)NC(=O)[C@H](CC(N)=O)NC(=O)[C@@H]4CCCN4C(=O)[C@H](CCCNC(=N)N)NC(=O)[C@H](CSSC[C@H](NC(=O)[C@@H](N)CC(=O)O)C(=O)N[C@@H](CC(C)C)C(=O)NCC(=O)N[C@@H](Cc4ccccc4)C(=O)N[C@@H](CCSC)C(=O)N[C@@H](CCCNC(=N)N)C(=O)N[C@@H](CCCCN)C(=O)N2)NC(=O)[C@H](CSSC[C@@H](C(=O)N[C@@H](CCCCN)C(=O)N[C@@H](Cc2ccc(O)cc2)C(=O)N[C@H](C(=O)N[C@@H](Cc2ccccc2)C(N)=O)C(C)C)NC(=O)[C@H](Cc2c[nH]c4ccccc24)NC(=O)[C@H](CCCCN)NC(=O)[C@H](Cc2cnc[nH]2)NC(=O)[C@H]([C@@H](C)O)NC(=O)[C@H](CCCNC(=N)N)NC(=O)[C@H](CO)NC3=O)NC(=O)[C@H](CCCNC(=N)N)NC(=O)[C@H](CC(=O)O)NC(=O)[C@H](CC(N)=O)NC(=O)[C@H](CC(=O)O)NC(=O)[C@@H]2CCCN2C1=O` [compound 68] (H-DCLGFMRKCIPDNDRCCRPNLVCSRTHKWCKYVF-NH2; disulfide 2-17, 9-23, 16-30), the IC50 at hNav1.3 (Use) was 140 nM; on hNav1.7 (IonWorks Quattro, Use, read-out: IWQ Use Nav1.7), 200 nM; against hNav1.5 (IWQ Use Nav1.5 (μM)), 18.1 µM.

On to `CC[C@H](C)[C@@H]1NC(=O)[C@@H]2CSSC[C@@H]3NC(=O)[C@H](C(C)C)NC(=O)[C@H](CC(C)C)NC(=O)[C@H](CC(N)=O)NC(=O)[C@@H]4CCCN4C(=O)[C@H](CCCNC(=N)N)NC(=O)[C@H](CSSC[C@H](NC(=O)[C@@H](N)CC(=O)O)C(=O)N[C@@H](CC(C)C)C(=O)NCC(=O)N[C@@H](Cc4ccccc4)C(=O)N[C@@H](CCSC)C(=O)N[C@@H](CCCNC(=N)N)C(=O)N[C@@H](CCCCN)C(=O)N2)NC(=O)[C@H](CSSC[C@@H](C(=O)N[C@@H](CCCCN)C(=O)N[C@@H](Cc2ccc(O)cc2)C(=O)N[C@H](C(=O)N[C@@H](Cc2ccccc2)C(N)=O)C(C)C)NC(=O)[C@H](Cc2c[nH]c4ccccc24)NC(=O)[C@H](CCCCN)NC(=O)[C@H](Cc2cnc[nH]2)NC(=O)[C@H](CCCNC(=N)N)NC(=O)[C@H](CCCNC(=N)N)NC(=O)[C@H](CO)NC3=O)NC(=O)[C@H](CCCCN)NC(=O)[C@H](CC(=O)O)NC(=O)[C@H](CC(N)=O)NC(=O)[C@H](CC(=O)O)NC(=O)[C@@H]2CCCN2C1=O` [compound 70] (H-DCLGFMRKCIPDNDKCCRPNLVCSRRHKWCKYVF-NH2; disulfide 2-17, 9-23, 16-30), for which the IC50 came to 8 nM on hNav1.3 (Table 22, use, […]); 30 nM at hNav1.7 (Table 22, IonWorks Quattro, use, […], read-out: IWQ Use Nav1.7); 3.06 µM at hNav1.5 (IWQ Use Nav1.5 (μM)).

As to `CC[C@H](C)[C@@H]1NC(=O)[C@@H]2CSSC[C@@H]3NC(=O)[C@H](C(C)C)NC(=O)[C@H](CC(C)C)NC(=O)[C@H](CC(N)=O)NC(=O)[C@@H]4CCCN4C(=O)[C@H](CCCNC(=N)N)NC(=O)[C@H](CSSC[C@H](NC(=O)[C@@H](N)CC(=O)O)C(=O)N[C@@H](CC(C)C)C(=O)NCC(=O)N[C@@H](Cc4ccccc4)C(=O)N[C@@H](CCSC)C(=O)N[C@@H](CCCNC(=N)N)C(=O)N[C@@H](CCCCN)C(=O)N2)NC(=O)[C@H](CSSC[C@@H](C(=O)N[C@@H](CCCCN)C(=O)N[C@@H](Cc2ccc(O)cc2)C(=O)N[C@H](C(=O)N[C@@H](Cc2ccccc2)C(N)=O)C(C)C)NC(=O)[C@H](Cc2c[nH]c4ccccc24)NC(=O)[C@H](CCCCN)NC(=O)[C@H](CCCNC(=N)N)NC(=O)[C@H]([C@@H](C)O)NC(=O)[C@H](CCCNC(=N)N)NC(=O)[C@H](CO)NC3=O)NC(=O)[C@H](CCCCN)NC(=O)[C@H](CC(=O)O)NC(=O)[C@H](CC(N)=O)NC(=O)[C@H](CC(=O)O)NC(=O)[C@@H]2CCCN2C1=O` [compound 71] (H-DCLGFMRKCIPDNDKCCRPNLVCSRTRKWCKYVF-NH2; disulfide 2-17, 9-23, 16-30), the IC50 turned out to be 510 nM on hNav1.3 (Table 23, use, […]); 510 nM against hNav1.7; 5.22 µM on hNav1.5 (Table 23, IonWorks Quattro, use, […], read-out: IWQ Use Nav1.5).

Take `CC[C@H](C)[C@@H]1NC(=O)[C@@H]2CSSC[C@@H]3NC(=O)[C@H](C(C)C)NC(=O)[C@H](CC(C)C)NC(=O)[C@H](CC(N)=O)NC(=O)[C@@H]4CCCN4C(=O)[C@H](CCCNC(=N)N)NC(=O)[C@H](CSSC[C@H](NC(=O)[C@@H](N)CC(=O)O)C(=O)N[C@@H](CC(C)C)C(=O)NCC(=O)N[C@@H](Cc4ccccc4)C(=O)N[C@@H](CCSC)C(=O)N[C@@H](CCCNC(=N)N)C(=O)N[C@@H](CCCCN)C(=O)N2)NC(=O)[C@H](CSSC[C@@H](C(=O)N[C@@H](CCCNC(=N)N)C(=O)N[C@@H](Cc2ccc(O)cc2)C(=O)N[C@H](C(=O)N[C@@H](Cc2ccccc2)C(N)=O)C(C)C)NC(=O)[C@H](Cc2c[nH]c4ccccc24)NC(=O)[C@H](CCCCN)NC(=O)[C@H](Cc2cnc[nH]2)NC(=O)[C@H]([C@@H](C)O)NC(=O)[C@H](CCCNC(=N)N)NC(=O)[C@H](CO)NC3=O)NC(=O)[C@H](CCCCN)NC(=O)[C@H](CC(=O)O)NC(=O)[C@H](CC(N)=O)NC(=O)[C@H](CC(=O)O)NC(=O)[C@@H]2CCCN2C1=O` [compound 73] (H-DCLGFMRKCIPDNDKCCRPNLVCSRTHKWCRYVF-NH2; disulfide 2-17, 9-23, 16-30): the IC50 at hNav1.3 (Table 25, use, […]) was 4950 nM; at hNav1.7 (Table 25, IonWorks Quattro, use, […], read-out: IWQ Use Nav1.7) it was 1360 nM; on hNav1.5 (Table 25, IonWorks Quattro, use, […], read-out: IWQ Use Nav1.5) it was 9.17 µM.

For `CC[C@H](C)[C@@H]1NC(=O)[C@@H]2CSSC[C@@H]3NC(=O)[C@H](C(C)C)NC(=O)[C@H](CC(C)C)NC(=O)[C@H](CC(N)=O)NC(=O)[C@@H]4CCCN4C(=O)[C@H](CCCNC(=N)N)NC(=O)[C@H](CSSC[C@H](NC(=O)[C@@H](N)CC(=O)O)C(=O)N[C@@H](CC(C)C)C(=O)NCC(=O)N[C@@H](Cc4ccccc4)C(=O)N[C@@H](CCSC)C(=O)N[C@@H](CCCNC(=N)N)C(=O)N[C@@H](CCCCN)C(=O)N2)NC(=O)[C@H](CSSC[C@@H](C(=O)N[C@@H](CCCCN)C(=O)N[C@@H](Cc2ccc(O)cc2)C(=O)N[C@H](C(=O)N[C@@H](CCCNC(=N)N)C(N)=O)C(C)C)NC(=O)[C@H](Cc2c[nH]c4ccccc24)NC(=O)[C@H](CCCCN)NC(=O)[C@H](Cc2cnc[nH]2)NC(=O)[C@H]([C@@H](C)O)NC(=O)[C@H](CCCNC(=N)N)NC(=O)[C@H](CO)NC3=O)NC(=O)[C@H](CCCCN)NC(=O)[C@H](CC(=O)O)NC(=O)[C@H](CC(N)=O)NC(=O)[C@H](CC(=O)O)NC(=O)[C@@H]2CCCN2C1=O` [compound 75] (H-DCLGFMRKCIPDNDKCCRPNLVCSRTHKWCKYVR-NH2; disulfide 2-17, 9-23, 16-30), the IC50 was 4690 nM on hNav1.3 (use-dependent, […]); 3580 nM on hNav1.7; 8.99 µM on hNav1.5 (setting [1]).

For the molecule `CC[C@H](C)[C@@H]1NC(=O)[C@@H]2CSSC[C@@H]3NC(=O)[C@H](C(C)C)NC(=O)[C@H](CC(C)C)NC(=O)[C@H](CC(N)=O)NC(=O)[C@@H]4CCCN4C(=O)[C@H](CCCNC(=N)N)NC(=O)[C@H](CSSC[C@H](NC(=O)[C@@H](N)CC(=O)O)C(=O)N[C@@H](CC(C)C)C(=O)NCC(=O)N[C@@H](Cc4ccccc4)C(=O)N[C@@H](CCSC)C(=O)N[C@@H](CCCNC(=N)N)C(=O)N[C@@H](CCCCN)C(=O)N2)NC(=O)[C@H](CSSC[C@@H](C(=O)N[C@@H](CCCCN)C(=O)N[C@@H](Cc2ccc(O)cc2)C(=O)N[C@H](C(=O)N[C@@H](Cc2ccccc2)C(=O)N[C@@H](CCCNC(=N)N)C(N)=O)C(C)C)NC(=O)[C@H](Cc2c[nH]c4ccccc24)NC(=O)[C@H](CCCCN)NC(=O)[C@H](Cc2cnc[nH]2)NC(=O)[C@H]([C@@H](C)O)NC(=O)[C@H](CCCNC(=N)N)NC(=O)[C@H](CO)NC3=O)NC(=O)[C@H](CCCCN)NC(=O)[C@H](CC(=O)O)NC(=O)[C@H](CC(N)=O)NC(=O)[C@H](CC(=O)O)NC(=O)[C@@H]2CCCN2C1=O` [compound 76], the IC50 on hNav1.3 (use-dependent, […]) came out at 100 nM; at hNav1.7 (IonWorks Quattro, use-dependent, […], read-out: IWQ Use Nav1.7 (μm)), 300 nM; at hNav1.5 (setting [1]), 9.73 µM.
